Laboratory results as given in patent US20050222229A1, “Fungicidal mixtures” (priority 2002, published 2005).

Test system: Plasmopara viticola
Assay: Persistency against peronospora of grapevine caused by Plasmopara viticola (potted grapevines, inoculation 3 days after spraying)
Format: in vivo
Conditions: grapevine Müller-Thurgau, inoculated 3 days after treatment
Description: The active compounds, separately or together, were formulated as a stock solution comprising 0.25% by weight of active compound in acetone or DMSO. 1% by weight of the emulsifier Uniperol® EL (wetting agent having emulsifying and dispersing action based on ethoxylated alkylphenols) was added to the solution, and the mixture was diluted with water to the desired concentration.
Use example: Persistency against peronospora of grapevine caused by Plasmopara viticola.
Leaves of potted grapevines of the cultivar “Müller-Thurgau” were sprayed to run off point with an aqueous suspension having the concentration of active compound stated below. To be able to assess the persistency of the substances, the plants were, after the spray coating had dried on, placed in a greenhouse for 3 days. Only then were the leaves inoculated with an aqueous zoospore suspension of Plasmopara viticola. The grapevines were then initially placed in a water-vapor-saturated chamber at 24° C. for 48 hours and then in a greenhouse at temperatures between 20 and 30° C. for 5 days. After this period of time, the plants were, to promote sporangiophore eruption, again placed in a humid chamber for 16 hours. The extent of the development of the infection on the undersides of the leaves was then determined visually.
for evaluation, the visually determined values for the percentages of infected leaf area were converted into efficacies in. % of the untreated control.
The efficacy (E) is calculated as follows using Abbot's formula: E=(1−α/β)·100 • α corresponds to the fungal infection of the treated plants in % and • β corresponds to the fungal infection of the untreated (control) plants in %
An efficacy of 0 means that the infection level of the treated plants corresponds to that of the untreated control plants; an efficacy of 100 means that the treated plants were not infected.
The expected efficacies of the active compound mixtures are determined using Colby's formula [R. S. Colby, Weeds 15, 20-22 (1967)] and compared with the observed efficacies. Colby's formula: E=x+y−x·y/100 • E expected efficacy, expressed in % of the untreated control, when using the mixture of the active compounds A and B at the concentrations a and b • x efficacy, expressed in % of the untreated control, when using active compound A at a concentration of a
y efficacy, expressed in % of the untreated control, when using active compound B at a concentration of b

[1] = 0.375 ppm active compound in the spray liquor
[2] = 0.75 ppm active compound in the spray liquor
[3] = 1.5 ppm active compound in the spray liquor
[4] = 3 ppm active compound in the spray liquor
[5] = 6 ppm active compound in the spray liquor

N#Cc1sc2c(=O)c3ccccc3c(=O)c=2sc1C#N [II, dithianon]
Efficacy in % of the untreated control (3.75 ppm active compound in the spray liquor): 0% | Efficacy in % of the untreated control (7.5 ppm active compound in the spray liquor): 20% | Efficacy in % of the untreated control (15 ppm active compound in the spray liquor): 32%

CSC1=N[C@@](C)(c2ccccc2)C(=O)N1Nc1ccccc1 [Ia, fenamidone]
Efficacy in % of the untreated control [1]: 66% | Efficacy in % of the untreated control [2]: 77% | Efficacy in % of the untreated control [3]: 93% | Efficacy in % of the untreated control [4]: 89% | Efficacy in % of the untreated control [5]: 94%

CC1(c2ccc(Oc3ccccc3)cc2)OC(=O)N(Nc2ccccc2)C1=O (stereo not shown) [Ib, famoxadone]
Efficacy in % of the untreated control [1]: 0% | Efficacy in % of the untreated control [2]: 77% | Efficacy in % of the untreated control [3]: 83% | Efficacy in % of the untreated control [4]: 89% | Efficacy in % of the untreated control [5]: 89%
